{
  "source": "patent US11474098B2",
  "about": "“Drug target for preventing pathologic calcium overload in cardiomyocytes and methods of screening for same” (THE TRUSTEES OF COLUMBIA UNIVERSITY IN THE CITY OF NEW YORK, priority 2017, dated 2022)",
  "key": {"[1]": {"test_system": "CaV1.2 channels", "description": "Membrane currents from isolated mouse ventricular cardiomyocytes (O'Connell et al. 2007) were measured by the whole-cell patch-clamp method using a MultiClamp 700B amplifier and pCLAMP 10 software (Molecular Devices) as described (Yang et al. 2013). The pipette solution contained (in mM): 40 CsCl, 90 Cs gluconate, 10 BAPTA, 1 MgCl2, 4 Mg-ATP, 2 CaCl2, and 10 HEPES, adjusted to pH 7.2 with CsOH. After the isolated cardiomyocytes were adequately buffered with 10 mM BAPTA in the internal solution, the isolated cardiomyocytes were superfused with (in mM): 140 TEA-CI, 1.8 CaCl2, 1 MgCl2, 10 glucose, and 10 HEPES, adjusted to pH 7.4 with CsOH. For experiments in tsA-201 cells, TEA-CI was reduced to 130 mM, and BaCl2 (10 mM) was used instead of CaCl2. Pipette series resistances were usually <1 MΩ after 60% compensation. Leak currents and capacitance transients were subtracted by a P/4 protocol. Voltages were corrected for the liquid junction potential of −10 mV. To measure Ca^2+ peak currents, the cell membrane potential was held at −50 mV and stepped to +10 mV for 350 ms every 10 seconds. To evaluate the current-voltage (I-V) relationship for Ca^2+ currents, the same protocol was repeated with steps between −50 mV to +50 mV in 10 mV increments. All experiments were performed at room temperature, 22±1° C. The parameters of voltage-dependent activation were obtained using a modified Boltzmann distribution: I(V)=Gmax*(V−Erev)/[1+exp(Vmid−V)/Vc)], where I(V) is peak current, Gmax is maximal conductance, Erev is reversal potential, Vmid is the midpoint, and Vc is the slope factor.\nWe next determined the sensitivity of CaV1.2 channels containing either transgenic pWT α1C or AID-mutant α1C to PKA modulation."}, "[2]": {"test_system": "CaV1.2 channels", "conditions": "Katchman et al. 2017; cited from earlier work"}, "[3]": {"test_system": "CaV1.2 channels", "experiment": "Whole-cell Ba2+ currents of adenovirus-infected cultured guinea pig ventricular myocytes", "assay_type": "cell-based", "conditions": "control cells expressing GFP or YFP-tagged mutant (YWI/AAA) AID peptide; 1 μM forskolin", "excerpt": "Replication deficient adenoviral vectors expressing AID-YFP and AIDmut-YFP were generated using the AdEasy Adenoviral Vector System (Agilent Technologies) according to the manufacturer's instructions. Briefly, sequences for AID-YFP and AIDmut-YFP were PCR-amplified and cloned into pShuttle-CMV vector. After linearization with PmeI, shuttle vectors were electroporated into BJ5183 cells containing pAdEasy-1 viral plasmid. Positive recombinants were amplified, linearized with Pac I, and transfected into AD-293 cells using the calcium phosphate precipitation method. Transfected cells were monitored for development of adenoviral plaques, after which the cells were freeze-thawed and the lysate used to infect a 10-cm dish of 90% confluent HEK293 cells. Viral expansion and purification was carried out as previously described (Colecraft et al. 2002).\nAdult guinea pig ventricular myocytes were isolated by enzymatic digestion using a Langendorff perfusion apparatuses, and cultured as previously described (Miriyala et al. 2008). […] Heart cells were infected 2-3 hours after plating with 5-20 μl of adenoviral vector stock (≅10^11-10^12 viral particles/ml).\nWhole-cell recordings of virally-infected cultured guinea pig ventricular myocytes were conducted at room temperature as previously described (Miriyala et al. 2008; Xu et al. 2010). […]"}, "[4]": {"test_system": "left ventricular contraction in isolated Langendorff-perfused hearts", "experiment": "Ex vivo cardiac contractility, Langendorff-perfused hearts with left ventricular balloon", "parameters": "species or system mouse", "conditions": "for increase in contractility in response to isoproterenol: native CaV1.2 first inhibited with nisoldipine; for increase in cardiac contractility: 200 nM isoproterenol with 300 nM nisoldipine, paced at 400 beats per minute", "experimental": "Hearts from these mice are isolated and contractility is assessed by placing a balloon in the left ventricle.\nThe cannulated hearts were retrogradely perfused on a Langendorff system with a modified Krebs solution (118.5 mM NaCl, 25 mM NaHCO3, 4.7 mM KCl, 1.2 mM MgSO4, 1.2 mM KH2PO4, 11 mM glucose, 1.8 mM Ca^2+). Left ventricular pressure was measured using a balloon catheter connected to an APT-300 pressure transducer, which was connected to a Powerlab digitizer (ADInstruments). […] Peak LV pressure during the 3-minute period was used for the assessment of β-adrenergic agonist stimulation.\nWe then assessed the role of CaV1.2 modulation in β-adrenergic agonist-induced positive inotropy at the whole organ level by inserting a pressure-transduced balloon into the left ventricle of Langendorff-perfused transgenic mice hearts. This approach enabled measurement of cardiac contractility independent of vascular or systemic effects. Hearts were paced at 400 beats per minute to remove the potentially confounding effect of heart rate variability on contractility (Kushnir et al. 2014). […] By contrast, using the same experimental paradigm in hearts from β-less AID-mutant transgenic mice, the response to isoproterenol was nearly abolished, yielding an average increase in cardiac contractility of only 1.2-fold (FIG. 10H and FIG. 10I)."}, "[5]": {"test_system": "isolated cardiomyocytes", "experiment": "Fractional shortening (sarcomere length) of field-stimulated isolated cardiomyocytes", "assay_type": "cell-based, mouse", "conditions": "for increase in fractional shortening: 200 nM isoproterenol with 300 nM nisoldipine, 1-Hz", "experimental": "Myocytes were field stimulated at 1-Hz. Percent contraction of sarcomere length was measured using the SarcLen module of Ionoptix and calculated as the difference of shortest sarcomere length during a contraction subtracted from the relaxed sarcomere length, divided by the relaxed sarcomere length, all averaged over at least 8 contractions.\nWe next exploited the findings that transgenic β-less AID-mutant α1C channels are insensitive to PKA modulation to probe the specific role of CaV1.2 modulation in the positive inotropic effect of β-adrenergic agonists in both isolated cardiomyocytes and in the whole heart. […] By contrast, this response was severely diminished in cardiomyocytes expressing transgenic β-less AID-mutant α1C channels in which isoproterenol produced a relatively meager 25% increase in fractional shortening (FIG. 10B and FIG. 10C)."}, "[6]": {"test_system": "phospholamban", "experiment": "Immunoblot of phospholamban Ser16 phosphorylation in cardiomyocytes", "assay_type": "cell-based, mouse", "conditions": "AID-mutant transgenic mice cardiomyocytes; 200 nM isoproterenol", "experimental": "Cells were exposed to 200 nM isoproterenol. Protein extracts were size-fractionated on SDS-PAGE, transferred to nitrocellulose and blotted with anti-pSer16 phospho-specific antibody (upper blot), and anti-PLB antibody (lower blot). Representative of three similar experiments.\nCardiac lysates from 6-12-week-old doxycycline-fed transgenic mice were prepared from either whole hearts or isolated ventricular cardiomyocytes (Yang et al. 2013). Immunoprecipitations were performed in modified RIPA buffer consisting of 50 mM Tris HCl; pH 7.4, 150 mM NaCl, Triton X-100 (0.25%), 10 mM EDTA, 10 mM EGTA, 10 μM Calpain inhibitor I, 10 μM Calpain inhibitor II, and Complete Mini-tablets (1 per 7 ml), using anti-FLAG antibody (Sigma) overnight. Immune complexes were collected using protein A (Amersham) for 2 h, followed by extensive washing. Proteins were size-fractionated, transferred to nitrocellulose membranes and probed with anti-FLAG antibody (Sigma), anti-tubulin antibody (Santa Cruz), custom anti-α1C and anti-β2 antibodies (Yang et al. 2013), and phospholamban antibodies (Badrilla). Detection was performed with a CCD camera (Carestream Imaging), and ImageQuant software was used for quantification. […]"}},
  "note": "Where two headings read alike, the source gives them in different places.",
  "data": [
    {"smiles": "Nc1ncnc2c1nc(Br)n2C1OC2COP(O)(=S)OC2C1O", "note": "(stereo not drawn) [Rp-8-Br-cAMPS]", "values": [
      {"measurement": "inhibition of nisoldipine-resistant basal current", "setting": "[1]; transgenic AID-mutant mice cardiomyocytes", "result": "did not inhibit"},
      {"measurement": "reversal of isoproterenol-mediated up-regulation of endogenous CaV1.2", "setting": "[2]", "result": "~96", "unit": "%"}
    ]},
    {"smiles": "C=C[C@@]1(C)CC(=O)[C@]2(O)[C@@]3(C)[C@@H](O)CCC(C)(C)[C@@H]3[C@H](O)[C@H](OC(C)=O)[C@@]2(C)O1", "note": "[forskolin]", "values": [
      {"measurement": "increase in whole-cell current amplitude", "setting": "[3]", "result": "4- to 5 fold"},
      {"measurement": "increase of transgenic pWT α1C Ca2+ currents", "setting": "[1]; transgenic pWT α1C cardiomyocytes, 10 μM forskolin, 300 nM nisoldipine", "result": "1.8+0.1 fold"}
    ]},
    {"smiles": "CC(C)NCC(O)c1ccc(O)c(O)c1", "note": "(stereo not drawn) [isoproterenol]", "values": [
      {"measurement": "increase in contractility in response to isoproterenol", "setting": "[4]; control mice", "result": "75-200%"},
      {"measurement": "increase in contractility in response to isoproterenol", "setting": "[4]; mutant mice (CaV1.2 lacking AID)", "result": "0-25%"},
      {"measurement": "increase in cardiac contractility", "setting": "[4]; pWT α1C hearts", "result": 3.3, "unit": "fold"},
      {"measurement": "increase in cardiac contractility", "setting": "[4]; β-less AID-mutant transgenic hearts", "result": 1.2, "unit": "fold"},
      {"measurement": "effect on relaxation of cardiomyocytes", "setting": "[5]; cardiomyocytes from both pWT and AID-mutant α1C transgenic mice", "result": "enhanced relaxation"},
      {"measurement": "increase in fractional shortening", "setting": "[5]; transgenic pWT α1C cardiomyocytes", "result": 100, "unit": "%"},
      {"measurement": "increase in fractional shortening", "setting": "[5]; β-less AID-mutant α1C cardiomyocytes", "result": 25, "unit": "%"},
      {"measurement": "phosphorylation of phospholamban at Ser16 in response to isoproterenol", "setting": "[6]", "result": "appropriately phosphorylated"},
      {"measurement": "shift of Vmid (V0.5) of steady-state activation", "setting": "[1]; GFP-WT β2b cardiomyocytes, 200 nM isoproterenol", "result": "−7.0", "unit": "mV"},
      {"measurement": "increase of peak CaV1.2 current", "setting": "[1]; GFP-WT β2 expressing cells, 200 nM isoproterenol", "result": "1.5±0.1", "unit": "fold"},
      {"measurement": "shift of Vmid (V0.5) of steady-state activation", "setting": "[1]; GFP-mutant β2b cardiomyocytes, 200 nM isoproterenol", "result": "−7.5", "unit": "mV"},
      {"measurement": "increase of peak CaV1.2 current", "setting": "[1]; GFP-mutant β2 expressing cells, 200 nM isoproterenol", "result": "1.6±0.1", "unit": "fold"},
      {"measurement": "shift of Vmid in the hyperpolarizing direction", "setting": "[1]; transgenic pWT α1C cardiomyocytes, 200 nM isoproterenol", "result": 4.4, "unit": "mV"},
      {"measurement": "increase of nisoldipine-insensitive current", "setting": "[1]; transgenic pWT α1C cardiomyocytes, 200 nM isoproterenol, 300 nM nisoldipine", "result": "1.9±0.1", "unit": "fold"}
    ]}
  ]
}
